ChEMBL document CHEMBL1126436, “Taxol Photoaffinity Label: 7-(p-Azidobenzoyl)taxol Synthesis and Biological Evaluation” (1992)

Assays:
Tubulin = assay: Compound was evaluated for the in vitro concentration required to produce 50% stimulation of the microtubule assembly; conditions: read-out: ED50 (the source's name)
B16 = assay: Compound was evaluated for the concentration which inhibits B16 melanoma cell proliferation by 50%; type: functional; conditions: Mus musculus, read-out: ED50 (the source's name)

EC50 (Tubulin) [µM] | EC50 (B16) [nM] | Compound
15 | 957 | CC(=O)O[C@H]1C(=O)[C@]2(C)[C@@H](OC(=O)c3ccc(N=[N+]=[N-])cc3)C[C@H]3OC[C@@]3(OC(C)=O)[C@H]2[C@H](OC(=O)c2ccccc2)[C@]2(O)C[C@H](OC(=O)[C@H](O)C(NC(=O)c3ccccc3)c3ccccc3)C(C)=C1C2(C)C (some centres undefined)
0.7 | 31.5 | CC(=O)O[C@H]1C(=O)[C@@]2(C)[C@H]([C@H](OC(=O)c3ccccc3)[C@]3(O)C[C@H](OC(=O)[C@H](O)[C@@H](NC(=O)c4ccccc4)c4ccccc4)C(C)=C1C3(C)C)[C@]1(OC(C)=O)CO[C@@H]1C[C@@H]2O [PACLITAXEL]
